The text below walks through data of the NIST ThermoML archive (doi:10.1016/j.tca.2018.04.001).

For data set [1] the following is noted: DSC. For orientation: DSC measures the heat that a sample takes up or gives off during a temperature scan.
Data set [2] is described as follows: Molar enthalpy of transition or fusion. The settings on record: DSC.

The structures appear in SMILES notation. ± gives the expanded uncertainty stated by the source.

`CCCCCCCCCCCCCCCCCCCCC` [heneicosane]: the Triple point temperature in data set [1] (Crystal 1) amounted to 313.65 ± 1 K; in data set [1] (Crystal 2) it was 305.05 ± 1 K. For the same compound, the “Molar enthalpy of transition or fusion” value came to 9.93 ± 1 kcal/mol in data set [2] (Crystal 1) and 3.42 ± 0.359 kcal/mol in data set [2] (Crystal 2).
